# “Also recorded” adds a separate entry of the source.
# Experiments:
# [1] = molecular target: T1, EphA4 (Rattus norvegicus, UniProt D3ZZK3); test: ephrin-A1-induced EphA4 tyrosine phosphorylation in cortical neurons (immunoprecipitation, western blot); assay type: cell-based; settings: cortical neurons pretreated with compound, then ephrin-A1; western blot for P-Tyr
# T1 construct: endogenous in cells; host or cells: primary rat cortical neurons (A5), primary rat hippocampal neurons (A7)
# Experimental: (§1) Primary cortical and hippocampal neurons were prepared from embryonic day 18-19 rat embryos as described previously^24. Briefly, cortical neurons (6×10^6 per plate) were plated on 100-mm culture dishes coated with poly-D-lysine (12.5 μg/mL; Sigma). Rat hippocampal neurons were seeded on 18-mm coverslips coated with poly-D-lysine (50 μg/mL) at a density of 0.5×10^5/18-mm coverslip for immunocytochemical analysis, 0.1×10^5/18-mm coverslip for growth cone collapse assay, or 1×10^5 or 1.5×10^5/18-mm coverslip for mEPSC recording. Neurons were fed Neurobasal medium (Invitrogen) supplemented with 2% B27 (Invitrogen). Acute brain slices were prepared from P15-P17 Sprague-Dawley rats. Briefly, the rats were rapidly decapitated, and their brains were immersed in ice-cold artificial cerebrospinal fluid (ACSF). The hippocampus was dissected, and 300-μm-thick slices were prepared using a vibratome (Lieca). The slices were then transferred into an incubating chamber containing circulating ACSF equilibrated with 95% O2+5% CO2 and held at room temperature for at least 2 h for recovery prior to experiments^65.
# For the immunoprecipitation assay, lysates were immunoprecipitated with the corresponding antibody for 2 h at 4° C. followed by incubation with protein G Sepharose for 1 h at 4° C.^24. […] EphA4 tyrosine phosphorylation was detected by western blot analysis using 4G10 antibody. […]
# [2] = test system: Aβ-induced reduction of neurotransmission in hippocampal neurons; test: mEPSC recording in Aβ-treated cultured hippocampal neurons; assay type: cell-based, rat
# Experimental: as §1
# For miniature EPSC recordings, hippocampal neurons at ˜25-28 DIV were co-treated with or without 500 nM Aβ together with the testing reagents for 24 h. Whole-cell patch-clamp recordings were made at room temperature with external solution containing (in mM) 110 NaCl, 5 KCl, 2 CaCl2, 0.8 MgCl2, 10 HEPES, and 10 D-glucose (pH 7.4) as well as an internal solution containing (in mM) 135 CsCl2, 10 HEPES, 2 MgCl2, 4 NaATP, 0.4 NaGTP, and 0.5 EGTA (pH 7.2)^24,27. Picrotoxin ([…]) was included in the external solution to block GABAergic IPSCs along with 0.5 μM TTX to prevent action potential-evoked EPSCs. For miniature EPSC recordings, cells were held at −70 mV. The pipette resistances for these experiments were typically 3-5 MΩ, while series resistances were 15-20 MΩ. The minis from each cell was recorded for 1 min in each condition. The measurement of mEPSC was according to that described in Mini Analysis Program for measuring AMPA receptor EPSCs (Synaptosoft Inc.). Only recording epochs in which series and input resistances varied <10% were analyzed. Data are presented as the mean±SEM of at least 3 experiments.
# [3] = test system: APP/PS1 mice; test: Amyloid plaque deposition and microglial activation in APP/PS1 mice (immunohistochemistry); assay type: in vivo, mouse
# Experimental: For immunohistochemical analysis, mice were anesthetised, transcardially perfused with saline followed by 4% paraformaldehyde (pH 7.4), and the brains were removed^66. After overnight postfixation and a series of cryoprotection, the brains were coronally sectioned at a thickness of 20 μm using a cryostat (Microm HM 560, Thermo Scientific). The sections were stained with β-amyloid (1:200) and Iba1 (1:500) antibodies overnight at 4° C., followed by incubation with appropriate fluorescence-conjugated secondary antibodies and mounted in Hydromount (National diagnostics). Images were taken with a Leica DMRA microscope. For 3,3-diaminobenzidine (DAB) staining, the sections were rehydrated and subjected to antigen retrieval. […]
# Images from the same experiment were obtained using identical acquisition settings, and images were analyzed with Metamorph software (Meta Image Series 7.5, Universal Imaging Corp.)^24,58. For quantifying the EphA4 and PSD-95 clusters, two dendrite segments from each neuron were analyzed for quantification. […] The basal threshold values for the background of all images in each experiment were measured. […] To measure the density of clusters in dendrites, the images were first thresholded to include the clusters with intensity 2-fold greater than the signal of an adjacent dendrite, and the total number of clusters and dendrite length were measured automatically. […]
# [4] = test system: NMDA receptors; test: NMDA current in hippocampal neurons; assay type: cell-based; settings: data not shown
# [5] = test system: glutamate-induced Ca2+ influx; settings: subsequent study; cited from earlier work
# T1 sequence (D3ZZK3 20-986): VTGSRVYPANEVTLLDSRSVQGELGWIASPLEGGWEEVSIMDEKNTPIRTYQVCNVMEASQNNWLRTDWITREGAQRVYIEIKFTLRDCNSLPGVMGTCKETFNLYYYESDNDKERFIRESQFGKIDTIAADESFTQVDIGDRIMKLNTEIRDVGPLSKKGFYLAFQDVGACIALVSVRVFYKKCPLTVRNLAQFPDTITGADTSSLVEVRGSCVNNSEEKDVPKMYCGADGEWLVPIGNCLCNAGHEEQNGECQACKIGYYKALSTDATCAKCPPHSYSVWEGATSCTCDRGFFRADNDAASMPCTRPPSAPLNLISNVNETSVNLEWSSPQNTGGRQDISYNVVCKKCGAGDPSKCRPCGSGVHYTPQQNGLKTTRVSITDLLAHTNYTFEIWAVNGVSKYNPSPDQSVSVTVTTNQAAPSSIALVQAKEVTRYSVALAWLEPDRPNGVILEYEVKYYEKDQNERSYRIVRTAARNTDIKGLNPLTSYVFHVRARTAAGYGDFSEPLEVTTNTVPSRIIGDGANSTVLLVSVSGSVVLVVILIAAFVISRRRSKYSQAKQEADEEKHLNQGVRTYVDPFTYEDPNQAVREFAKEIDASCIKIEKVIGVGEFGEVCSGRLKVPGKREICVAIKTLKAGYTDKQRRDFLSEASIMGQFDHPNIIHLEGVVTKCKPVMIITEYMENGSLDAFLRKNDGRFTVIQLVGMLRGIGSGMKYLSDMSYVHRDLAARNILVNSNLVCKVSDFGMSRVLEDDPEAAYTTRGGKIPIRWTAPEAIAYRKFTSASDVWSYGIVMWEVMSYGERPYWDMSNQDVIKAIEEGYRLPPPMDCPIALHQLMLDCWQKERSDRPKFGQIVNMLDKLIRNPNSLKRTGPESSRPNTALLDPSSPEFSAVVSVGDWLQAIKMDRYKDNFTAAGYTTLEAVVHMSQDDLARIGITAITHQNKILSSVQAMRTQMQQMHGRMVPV
smiles,measurement,setting,value
"CC[C@H]1CN2CC[C@]3(C(=O)Nc4ccccc43)[C@@H]2C[C@@H]1/C(=C\OC)C(=O)OC [Rhy, methyl (7β,16E,20α)-16-(methoxymethylene)-2-oxocorynoxan-17-oate]",ephrin-A1-induced EphA4 tyrosine phosphorylation,[1],reduced the specific phosphorylation; also recorded: inhibited Eph-ephrin-A interaction and EphA4 tyrosine phosphorylation
same,mEPSC inter-event interval,"[2]; Rhy 10 μM + Aβ, Aβ alone 897.4±43.4 ms",420.6 ± 9.6 ms
same,mEPSC inter-event interval,"[2]; Rhy 10 μM alone, control 312.9±7.8 ms",512.2 ± 13.6 ms
same,amyloid plaques in cortex and hippocampus,"[3]; APP/PS1 mice, 10-week administration of Rhy versus water",number and total area of amyloid plaques decreased significantly
same,"plaque-associated reactive microglia, Iba1 staining",[3]; cortex of APP/PS1 mice administered with Rhy,significant reduction of plaque-associated reactive microglia
same,inhibition of NMDA current in hippocampal neurons,[4],unable to inhibit NMDA current
same,inhibition of glutamate-induced Ca2+ influx,[5],nor inhibits the glutamate-induced Ca^2+ influx
